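Briefly, cells in 96-well plates were exposed to five compound concentrations for 48 h, and endpoints were estimated by linear interpolation. GI50 marks 50% less growth. TGI: concentration producing complete growth inhibition.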
How the values were obtained:
Assay in all cases: NCI tumour cell line growth inhibition, 48 h
DLD-1 colon = tested on: DLD-1 colon
DMS 273 small cell lung = tested on: DMS 273 small cell lung
XF 498 CNS = tested on: XF 498 CNS
BT-549 breast = tested on: BT-549 breast
RXF-631 renal = tested on: RXF-631 renal
MDA-N = tested on: MDA-N
P388 leukemia = tested on: P388 leukemia
P388/ADR leukemia = tested on: P388/ADR leukemia
SN12K1 renal = tested on: SN12K1 renal

COC(=O)C1=C(C(=O)OC)C2(C(=O)OC)OC1(OC)C(C1(C(=O)OC)C(C(=O)OC)=C1C(=O)OC)=C2C(=O)OC (stereo unspecified)
TGI (DLD-1 colon): > 100 µM | TGI (DMS 273 small cell lung): > 100 µM | TGI (XF 498 CNS): > 100 µM

O=Nc1c(O)ccc2ccccc12
GI50 (BT-549 breast): 12.2 µM | TGI (BT-549 breast): 24.9 µM

CCS/C(Nc1ccccc1)=C(\C#N)C(=O)Nc1ccc(OC)cc1
GI50 (BT-549 breast): 2.8 µM | TGI (BT-549 breast): > 100 µM

COc1ccc(/C=C2\N=C3SC=C(N)N3C2=O)cc1
GI50 (BT-549 breast): 0.73 µM | TGI (BT-549 breast): 3.84 µM

COc1ccc2c(c1)CC[C@@H]1C2CC[C@]2(C)C(=O)NC(=O)CC12 (stereo partly specified)
TGI (DLD-1 colon): > 100 µM | TGI (DMS 273 small cell lung): > 100 µM | TGI (XF 498 CNS): > 100 µM

C#Cc1ccc(NC(=O)c2ccc(/C=C/C(=O)c3nccn3C)cc2)cc1
GI50 (BT-549 breast): 0.358 µM | TGI (BT-549 breast): 0.845 µM

CN(Cc1cnc2nc(N)nc(N)c2n1)c1ccc(C(=O)NC(CCC(=O)O)C(=O)O)cc1 (stereo unspecified)
GI50 (BT-549 breast): 6.51 µM | TGI (BT-549 breast): > 100 µM

C=C(C)[C@H]1CC/C(C)=C/CCC(C)C(=O)CC/C(CO)=C\[C@@H]1O (stereo partly specified)
GI50 (BT-549 breast): 88.1 µM | TGI (BT-549 breast): > 100 µM

O=c1[nH]c(-c2ccc(C(F)(F)F)cc2)nc2c1CSCC2
GI50 (BT-549 breast): > 94.3 µM | TGI (BT-549 breast): > 100 µM

O=[N+]([O-])c1ccc(Cl)c(C2SCc3nc4ccccc4n32)c1 (stereo unspecified)
TGI (DLD-1 colon): > 100 µM | TGI (DMS 273 small cell lung): > 100 µM

O=C1C(c2ccccc2)=C(c2ccccc2)C(c2ccc(CCCCCCc3ccc(C4=C(c5ccccc5)C(=O)C(c5ccccc5)=C4c4ccccc4)cc3)cc2)=C1c1ccccc1
TGI (DLD-1 colon): > 100 µM | TGI (DMS 273 small cell lung): > 100 µM | TGI (RXF-631 renal): > 100 µM

O=C(NNS(=O)(=O)c1cc(C(F)(F)F)cc(C(F)(F)F)c1)c1cnn(-c2ccc(Cl)cc2)c1C(F)(F)F
GI50 (BT-549 breast): 14.5 µM | TGI (BT-549 breast): 28 µM

O=c1c([Se]c2coc3ccccc3c2=O)coc2ccccc12
TGI (DLD-1 colon): 34 µM | TGI (DMS 273 small cell lung): 24 µM | TGI (XF 498 CNS): 30.5 µM

COc1cc(Br)c(CC2=NCCc3cc(OC)c(OC)cc32)cc1OC
TGI (DLD-1 colon): > 100 µM | TGI (DMS 273 small cell lung): 51.3 µM | TGI (RXF-631 renal): > 100 µM

COc1ccccc1/C=C\c1cc(OC)c(OC)c(OC)c1
TGI (DLD-1 colon): > 100 µM | TGI (DMS 273 small cell lung): > 100 µM | TGI (RXF-631 renal): > 100 µM | TGI (XF 498 CNS): 48 µM

COc1ccc(/C=C2\COc3ccc(-c4ccccc4)cc3C2=O)cc1O
GI50 (BT-549 breast): 1.69 µM | TGI (BT-549 breast): 5.57 µM

COc1ccc(NC(=O)c2cc(OC)c(OC)c(OC)c2)cc1O
GI50 (BT-549 breast): 21.7 µM | TGI (BT-549 breast): > 100 µM

Oc1ccc2ccccc2c1N=Nc1ccccc1
TGI (BT-549 breast): > 100 µM | TGI (MDA-N): > 100 µM

Oc1ccccc1-n1c(-c2ccccc2)ccc1-c1ccccc1
GI50 (BT-549 breast): 13.4 µM | TGI (BT-549 breast): 89.5 µM

Cn1ccnc1C(=O)/C=C/c1ccc(C(=O)Nc2nc3ccccc3[nH]2)cc1
GI50 (BT-549 breast): 1.73 µM | TGI (BT-549 breast): > 25 µM

O=C1c2cc(CCl)sc2C(=O)c2ccsc21
TGI (DLD-1 colon): 2.16 µM | TGI (DMS 273 small cell lung): 1.12 µM | TGI (MDA-N): 0.0343 µM | TGI (XF 498 CNS): 3.1 µM

COc1ccc2c(c1)OC13Oc4cc(OC)ccc4C=C1CCCC3=C2
GI50 (BT-549 breast): > 100 µM | TGI (BT-549 breast): > 100 µM

C[C@@H]1CC[C@@]2(OC1)O[C@H]1C[C@H]3[C@@H]4CC=C5C[C@@H](O[C@@H]6O[C@H](CO)[C@@H](O[C@@H]7O[C@@H](CO)[C@H](O)[C@H]7O)[C@H](O)[C@H]6O[C@@H]6O[C@@H](C)[C@H](O)[C@@H](O)[C@H]6O)CC[C@]5(C)[C@H]4CC[C@]3(C)[C@H]1[C@@H]2C
GI50 (BT-549 breast): 1.5 µM | TGI (BT-549 breast): 2.94 µM

CCOC(=O)C(C[Si](C)(C)C)P(=O)(OCC)OCC (stereo unspecified)
TGI (DLD-1 colon): > 100 µM | TGI (DMS 273 small cell lung): > 100 µM | TGI (RXF-631 renal): > 100 µM | TGI (XF 498 CNS): > 100 µM

C[Se]C(=O)CC1=C2C=C(F)C=CC2/C(=C\c2ccc(S(C)=O)cc2)C1C (stereo unspecified)
GI50 (BT-549 breast): 0.0581 µM | TGI (BT-549 breast): 0.266 µM

Oc1c(CN2CCCC2)cc(COCc2ccccc2)c2cccnc12
GI50 (BT-549 breast): 3.52 µM | TGI (BT-549 breast): 18.1 µM

O=C1/C(=C/c2cccs2)CCC/C1=C\c1cccs1
GI50 (BT-549 breast): > 58.3 µM | TGI (BT-549 breast): > 100 µM

COc1ccc(C(=O)C=C2NCCN2)cc1
TGI (DLD-1 colon): > 100 µM | TGI (DMS 273 small cell lung): > 100 µM

COc1cc(C2C(C(=O)Nc3ccccc3)=C(C)NC(C)=C2C(=O)Nc2ccccc2)ccc1O
TGI (DLD-1 colon): > 100 µM | TGI (XF 498 CNS): > 100 µM

C[C@H]1[C@@H](OCC(CO[C@H]2O[C@@H]3O[C@@]4(C)CC[C@H]5[C@H](C)CC[C@@H]([C@H]2C)[C@@]35OO4)=NOCC(=O)O)OC2O[C@@]3(C)CC[C@H]4[C@H](C)CC[C@@H]1[C@@]24OO3 (stereo partly specified)
GI50 (BT-549 breast): 0.473 µM | TGI (BT-549 breast): 20.7 µM

O=c1[nH]c(=S)[nH]c(O)c1/C=C1\C=CC=N1
TGI (DLD-1 colon): 22 µM | TGI (DMS 273 small cell lung): 25.3 µM | TGI (XF 498 CNS): 32.3 µM

CC(C)(C)CC(C)(C)c1ccc(OCCOCCSC(=N)N)cc1
GI50 (BT-549 breast): 3.84 µM | TGI (BT-549 breast): 16 µM

c1ccc(-c2nc(N3CCNCC3)c3nc(-c4ccccc4)oc3n2)cc1
GI50 (BT-549 breast): 1.67 µM | TGI (BT-549 breast): 3.24 µM

CC#CC(=O)N1CCC[C@H]1c1nc(-c2ccc(C(=O)Nc3ccccn3)cc2)c2c(N)nccn12
GI50 (BT-549 breast): > 96.5 µM | TGI (BT-549 breast): > 100 µM

COc1ccccc1-n1c(SCc2cc(OC)c(OC)c(OC)c2)nc2ccc(Cl)cc2c1=O
GI50 (BT-549 breast): 3.95 µM | TGI (BT-549 breast): > 100 µM

C=C1C(C)C2C(Cc3ccccc3)NC(=O)C23C(OC(C)=O)/C=C/C(C)(O)CC(C)C/C=C/C3C1O (stereo unspecified)
TGI (BT-549 breast): > 47.3 µM | TGI (DLD-1 colon): > 100 µM | TGI (DMS 273 small cell lung): > 82 µM | TGI (MDA-N): > 100 µM | TGI (P388 leukemia): 41.3 µM | TGI (P388/ADR leukemia): 33.5 µM | TGI (SN12K1 renal): 37.1 µM | TGI (XF 498 CNS): 8.29 µM

NC(CSC(c1ccccc1)(c1ccccc1)c1ccc2ccccc2c1)C(=O)O (stereo unspecified)
GI50 (BT-549 breast): 0.144 µM | TGI (BT-549 breast): 22.8 µM

Cc1ccc(NC(=O)C(=O)Cc2nc3ccccc3o2)c(C)c1
TGI (DLD-1 colon): > 100 µM | TGI (DMS 273 small cell lung): > 100 µM | TGI (RXF-631 renal): > 100 µM | TGI (XF 498 CNS): > 100 µM

COc1ccc([C@H]2O[C@@H](CO)C[C@]2(O)c2ccc(OC)cc2)cc1
GI50 (BT-549 breast): > 100 µM | TGI (BT-549 breast): > 100 µM

CCC1(CN(C)C)CC/C(=C\c2ccc3c(c2)OCO3)C1=O (stereo unspecified)
TGI (DLD-1 colon): > 100 µM | TGI (DMS 273 small cell lung): > 100 µM | TGI (RXF-631 renal): > 100 µM

From PubChem BioAssay (NCI)
